Read-outs that look alike come from different tables or passages of the source.
System: Citrullinated Histone H3 in 4T1 (TNBC cell line) cells
Assay: 4T1 CECN ELISA assay
Assay type: cell-based
Details: 4T1 cells, stimulation with 50 μM A23187 for 4 h, read-out: Average IC50 Abs
Experimental: Cell culture: 4T1 cells were grown in DMEM+10% FBS+1% HEPES+1% PS. Cells plating: • 1) 4T1 cells were collected and the plate was centrifuged at 1000 rpm for 5 min. • 2) The 4T1 cells were diluted to 0.5×10^6 cells/mL and plated into a 96-well plate with 100 μL/well. The plate was then incubated in the incubator (5% CO2, 37° C.) for overnight to allow cells to adhere, exchanged fresh culture medium with 100 μL/well. Compound treatment: • 1) Preparation of compound serial dilution (source plate 500×, final DMSO concentration: 0.2%): briefly, compounds were dissolved in 100% DMSO to a concentration of 20 mM (the stock solution) and a 3-fold serial dilution with 8-point doses was performed. • 2) 10× compound solution was pipetted up and down; and 10 μL/well of compounds were added into each well and incubated for 30 min. Stimulation with 50 μM A23187: • 1) A solution of A23187 (500 μM) in complete DMDM (DMDM+10% FBS+1% PS+1 mM CaCl2) containing 150 U/mL S7 Nuclease was prepared. The obtained solution was added 10 μL/well into each well and incubated for 4 h in the incubator (5% CO2, 37° C.). • 2) The 4T1 cells treated with 10 μL/well complete DMDM without A23187 worked as negative control. Sample preparation: • 1) EDTA (0.5 M, 2 μL/well) were added to all the wells to stop the reaction. • 2) The plate was centrifuged at 1000 rpm for 5 min to collect supernatant. • 3) The supernatant was then diluted at least 1:2 before adding to the ELISA plate for citrullinated H3 analysis.
The standard was reconstituted with 2 mL of Assay buffer to 500 ng/mL. The reconstituted standard was relatively unstable at 4° C. and should be used within 3 hr after reconstitution.
• 1) 100 μL of the standards or diluted samples were added to the wells on the ELISA plate. • 2) The plate was covered with Cover Sheet and incubated for 2 h at RT on an orbital shaker.
On the day of the assay, the reagent was thawed at rt. For one plate, 1.2 mL of HRP Conjugate were diluted into 10.8 mL of assay buffer. A diluted HRP Conjugate was prepared shortly before use.
• 1) The wells were empties and rinsed four times with 1× wash buffer with 300 μL/well (Low speed). The plate was inverted between wash steps to empty the plate. After the last wash, the inverted plate was gently tapped on absorbent paper to remove the residual wash buffer. • 2) 100 μL of the HRP Conjugate working solution were added to each well of the plate. • 3) The plate was covered with cover sheet and incubated for 1 h at RT on an orbital shaker.
• 1) The wells were empties and rinsed four times with 1× wash buffer with 300 μL/well (low speed). The plate was inverted between wash steps to empty the plate. […] 100 μL of HRP STOP solution were added to each well of the plate.
• 1) Wipe the bottom of the plate with a clean tissue to remove fingerprints, dirt, etc. • 2) Read the plate at a wavelength of 450 nm.
The percent (%) inhibition at each concentration of compound was calculated based on and relative to the signal in the HPE and ZPE wells contained within each assay plate. The HPE wells worked as […], and the ZPE wells didn't contain any compound but rather DMSO (final concentration=[…]) as […]. The concentrations and % inhibition values for tested compounds were plotted and the concentration of compound required for 50% inhibition (IC50) was determined with a Four-parameter logistic dose response equation. The endpoint value (IC50) for the reference peptide/compound was evaluated in each experiment as a quality control measure. If the endpoint value is within 3-fold of the expected value then the experiment is deemed acceptable. The results of representative compounds of the present invention are provided in Table 3 below. ≤0.1 μM=“++++”; >0.1 and ≤0.5 μM=“+++”; >0.5 and ≤5.0 μM=“++”; >5.0 μM=“+”. “−”=not available.

| SMILES | IC50 (Mus musculus, 4T1, 4 h) | IC50 | further results |
| --- | --- | --- | --- |
| CCC1CN(CCCO)c2cccc3cc(-c4nc5cc(C(=O)N6C[C@H](N)C[C@@H](F)C6)cc(OC)c5n4C)n1c23 (single isomer, unassigned) [Example 82] | ≤ 100 nM | – | – |
| CCC1CN(CCCO)c2cccc3cc(-c4nc5cc(C(=O)N6C[C@H]7CC[C@@H]6[C@@H]7N)cc(OC)c5n4C)n1c23 (single isomer, unassigned) [Example 86] | – | > 5000 nM | – |
| CCC1CN(CCCO)c2cccc3cc(-c4nc5cc(C(=O)N6C[C@H]7CC[C@@H]6[C@@H]7N)cc(OC)c5n4C)n1c23 (single isomer, unassigned) [Example 87] | – | ≤ 100 nM | – |
| CCC1CN(CCCO)c2cccc3cc(-c4nc5cc(C(=O)N6C[C@H](N)C[C@@H](F)C6)cc(F)c5n4C)n1c23 (stereo partly drawn) [Example 75, ((3R,5R)-3-amino-5-fluoropiperidin-1-yl)(2-(3-ethyl-1-(3-hydroxypropyl)-2,3-dihydro-1H-pyrrolo[1,2,3-de]quinoxalin-5-yl)-7-fluoro-1-methyl-1H-benzo[d]imidazol-5-yl)methanone] | 100 to 500 nM | – | – |
| C#CCn1c(-c2cc3cccc4c3n2C(CC)CN4CCCO)nc2cc(C(=O)N3C[C@H](N)C[C@@H](F)C3)cc(OC)c21 (stereo partly drawn) [Example 95, ((3R,5R)-3-amino-5-fluoropiperidin-1-yl)(2-(3-ethyl-1-(3-hydroxypropyl)-2,3-dihydro-1H-pyrrolo[1,2,3-de]quinoxalin-5-yl)-7-methoxy-1-(prop-2-yn-1-yl)-1H-benzo[d]imidazol-5-yl)methanone] | ≤ 100 nM | – | – |
| CCC1CN(CCCO)c2cccc3cc(-c4nc5cc(C(=O)N6C[C@H]7CC[C@@H]6[C@@H]7N)cc(F)c5n4CC)n1c23 (stereo partly drawn) [Example 96, ((1R,4R,7R)-7-amino-2-azabicyclo[2.2.1]heptan-2-yl)(1-ethyl-2-(3-ethyl-1-(3-hydroxypropyl)-2,3-dihydro-1H-pyrrolo[1,2,3-de]quinoxalin-5-yl)-7-fluoro-1H-benzo[d]imidazol-5-yl)methanone] | – | – | IC50 (Mus musculus): 100 to 500 nM |

Source: patent publication US20250136607A1 (REGOR PHARMACEUTICALS, INC., priority 2021, published 2025)
